1 compound from patent US20190133518A1, “METHODS AND SYSTEMS FOR DETERMINING DIURETIC RESPONSE PROFILES” (PACESETTER, INC., priority 2017, published 2019) can be followed below.

This experiment relates to patient. Nature of the experiment: Mean PAP measurements of a patient before and after taking medication (Example 1, medication modification). The experiment is classed as in vivo. From the text: In accordance with the present disclosure, an exemplary embodiment is as follows. A patient implanted with CARDIOMEMS, instead of simply providing a single reading each day, provides a reading twice a week (or daily) via the following protocol: First, the patient wakes up in the morning and takes a PAP reading (prior to any medication ingestion). Immediately thereafter, the patient takes all medications, which include HF medications including diuretic(s). A timer goes off in the bed-side monitor (patient home electronics unit), and about sixty minutes later, the patient takes another PAP recording. As noted elsewhere throughout this disclosure, the timing between readings is variable.
The protocol based recordings are marked with a unique identifier and transmitted to a database (e.g., Merlin.net database). The protocol based PAP recordings are then used to determine the diuretic response profile of the patient. Specifically, the response profile is determined using PAP measurement data-points at time […] (pre medication) and time (t2) (“x” minutes after medication) and the time constant of the specific diuretic via, for example, a polynomial regression fit. For example, the time constant of furosemide is shorter than the longer acting thiazide diuretic.
This example examined the characterization/determination of medication dosage and temporal response in a patient given different kinds of medication. […] The mean PAP measurement of the patient at time (t1) was about 35 mmHg. […].

With `NS(=O)(=O)c1cc(C(=O)O)c(NCc2ccco2)cc1Cl` [furosemide], the “average PAP measurement at time (t2)” value (week 1, 80 mg furosemide, about 1 hour after medication (FIG. 6A)) is “about 19 mmHg”. Further, the “mean PAP measurement at time (t3)” value (week 1, 80 mg furosemide, about 2 hours after medication (FIG. 6A)) is reported as “about 21 mmHg”. Further, the “mean PAP measurement at time (t1)” value is “about 35 mmHg” (week 1, 80 mg furosemide, t1 prior to medication (FIG. 6A)); “about 31 mmHg” (week 2, 80 mg furosemide, t1 prior to medication (FIG. 6B)); “about 31 mmHg” (week 10, 80 mg furosemide, prior to ingestion of the medication (FIG. 6C)). Besides, where the note is “week 2, 80 mg furosemide (FIG. 6B)”, the “mean PAP measurements at time (t2) and time (t3) compared with week 1” value is “similar”. In addition, the “mean PAP measurement after medication” value reads like this: (week 2, 80 mg furosemide, after medication (FIG. 6B)) “about 19 mmHg”; (week 10, 80 mg furosemide, time (t2) and time (t3) (FIG. 6C)) “about 27 mmHg”. In addition, the “diuretic profile in the patient” value (week 10, 80 mg furosemide (FIG. 6C)) is reported as “early signs of developing diuretic resistance”.
